Publication PMC8154581, “Discovery of Novel Thiophene-arylamide Derivatives as DprE1 Inhibitors with Potent Antimycobacterial Activities” (Journal of Medicinal Chemistry, 2021)
pIC50: −log10 of the molar value. In brackets after ≈: the same amount, converted by molar mass. Several values for one entry are separate records, joined by “and”; a condition that tells them apart may be missing. Equal values may be shown once. Read-outs that look alike come from different tables or passages of the source.

Columns and labels:
Vero cells = assay: Cytotoxicity assay in Vero cells (MTT); type: cell-based; conditions: for IC50: Chlorocebus sabaeus, Vero cells, 48 h, read-out: IC50 (Vero)
M. tuberculosis H37Rv [1] = assay: MIC against replicating M. tuberculosis H37Rv, microplate Alamar blue assay (MABA); type: cell-based
[2] = tested on: M. tuberculosis (H37Rv) in infected mouse J774A.1 macrophages; type: cell-based
Mt-DprE1 = Mt-DprE1 (Mycobacterium tuberculosis, UniProt P9WJF1); type: biochemical, M. tuberculosis
hERG K+ channel = hERG K+ channel (Homo sapiens, UniProt Q12809); assay: Inhibition of the hERG K+ channel, electrophysiology
[3] = Cytotoxicity assay in HepG2 cells (MTT); conditions: human
[4] = Hepatocyte stability assay, mouse; conditions: male, mouse hepatocytes
[5] = Hepatocyte stability assay, human; conditions: human hepatocytes
M. tuberculosis H37Rv [6] = assay: In vivo efficacy in acute TB infection model in Balb/c mice
[7] = Pharmacokinetic studies in Balb/c mice
[8] = Mycobacterium tuberculosis, H37RV, supplementary CSV, same values as Tables 1-3, read-out: Minimal inhibit concentration
[9] = Mycobacterium tuberculosis, H37RV, against M. tuberculosis H37Rv, Tables 1-3, read-out: MIC
[10] = Mycobacterium tuberculosis, H37RV, Table 4, read-out: MIC H37Rv
[11] = male, Balb/c, mouse, in vivo, iv, 5 mg/kg
[12] = male, Balb/c, mouse, in vivo, po, 50 mg/kg

Chain of Mt-DprE1 (P9WJF1 whole entry, looked up): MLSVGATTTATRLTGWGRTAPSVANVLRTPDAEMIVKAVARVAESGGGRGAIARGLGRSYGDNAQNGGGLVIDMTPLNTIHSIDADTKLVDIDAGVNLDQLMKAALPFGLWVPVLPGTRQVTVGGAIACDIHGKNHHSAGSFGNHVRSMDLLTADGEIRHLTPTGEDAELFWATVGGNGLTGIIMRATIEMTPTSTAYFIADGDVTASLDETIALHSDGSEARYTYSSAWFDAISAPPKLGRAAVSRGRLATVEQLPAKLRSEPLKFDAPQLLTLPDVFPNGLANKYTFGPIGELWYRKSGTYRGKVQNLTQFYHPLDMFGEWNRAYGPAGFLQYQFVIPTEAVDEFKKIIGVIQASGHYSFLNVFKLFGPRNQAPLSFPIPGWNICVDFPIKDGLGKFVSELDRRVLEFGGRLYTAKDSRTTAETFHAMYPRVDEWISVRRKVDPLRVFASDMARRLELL
Chain of hERG K+ channel (Q12809 whole entry): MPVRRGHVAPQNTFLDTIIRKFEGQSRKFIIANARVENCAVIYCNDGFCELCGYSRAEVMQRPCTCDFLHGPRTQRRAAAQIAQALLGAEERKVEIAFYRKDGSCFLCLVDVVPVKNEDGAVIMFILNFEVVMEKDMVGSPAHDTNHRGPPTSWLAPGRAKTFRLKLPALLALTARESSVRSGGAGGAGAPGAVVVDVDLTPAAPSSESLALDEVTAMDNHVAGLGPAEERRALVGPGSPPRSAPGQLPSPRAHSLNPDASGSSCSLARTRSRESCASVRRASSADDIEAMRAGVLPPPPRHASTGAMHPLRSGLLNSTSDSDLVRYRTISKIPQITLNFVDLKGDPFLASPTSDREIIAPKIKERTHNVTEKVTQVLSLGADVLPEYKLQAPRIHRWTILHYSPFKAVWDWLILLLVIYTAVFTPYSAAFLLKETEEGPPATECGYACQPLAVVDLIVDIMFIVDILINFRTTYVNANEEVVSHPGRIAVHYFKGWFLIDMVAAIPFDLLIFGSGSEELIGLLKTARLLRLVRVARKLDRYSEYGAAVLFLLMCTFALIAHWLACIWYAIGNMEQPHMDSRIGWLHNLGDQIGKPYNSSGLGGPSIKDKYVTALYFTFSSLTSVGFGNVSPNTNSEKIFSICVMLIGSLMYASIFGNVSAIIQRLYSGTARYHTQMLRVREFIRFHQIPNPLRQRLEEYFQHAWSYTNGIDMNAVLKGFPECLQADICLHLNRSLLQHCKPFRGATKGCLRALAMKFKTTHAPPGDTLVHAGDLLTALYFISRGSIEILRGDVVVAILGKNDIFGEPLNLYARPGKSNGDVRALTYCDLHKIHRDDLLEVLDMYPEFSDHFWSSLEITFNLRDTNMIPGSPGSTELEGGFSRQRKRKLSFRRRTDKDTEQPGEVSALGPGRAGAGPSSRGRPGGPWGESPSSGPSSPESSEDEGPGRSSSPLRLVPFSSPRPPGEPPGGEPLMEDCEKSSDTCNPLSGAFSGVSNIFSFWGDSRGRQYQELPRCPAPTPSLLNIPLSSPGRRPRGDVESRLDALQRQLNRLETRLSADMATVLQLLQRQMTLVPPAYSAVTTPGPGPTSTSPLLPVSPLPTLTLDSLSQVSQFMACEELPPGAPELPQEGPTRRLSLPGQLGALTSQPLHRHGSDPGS

Compound: Cc1ccnc(NC(=O)c2ccsc2NC(=O)c2ccc(C(=O)N3CCCCC3)cc2)n1 [Compound 25j, N-(4-Methylpyrimidin-2-yl)-2-(4-(piperidine-1-carbonyl)benzamido)thiophene-3-carboxamide]
- IC50 (Vero cells): 51.9 µg/mL (≈ 115 µM)
- MIC (M. tuberculosis H37Rv [1]; Mycobacterium tuberculosis, H37RV, against M. tuberculosis H37Rv, Tables 1-3): 1.94 µg/mL (≈ 4.32 µM)
- MIC (M. tuberculosis H37Rv [1]; [8]): 1.94 µg/mL (≈ 4.32 µM)
- melting point: 177 to 178 °C

Compound: CCOC(=O)NC(=O)c1ccsc1NC(=O)c1ccc(C(=O)N2CCCCC2)cc1Br [Compound 24d, Ethyl (2-(2-Bromo-4-(piperidine-1-carbonyl)benzamido)thiophene-3-carbonyl)carbamate]
- SI (Vero cells): >131
- IC50 (Vero cells): > 64 µg/mL
- MIC (M. tuberculosis H37Rv [1]; [9]): 0.49 µg/mL (≈ 0.964 µM)
- MIC (M. tuberculosis H37Rv [1]; [8]): 0.49 µg/mL (≈ 0.964 µM)
- melting point: 144 to 145 °C

Compound: CCOC(=O)NC(=O)c1ccsc1NC(=O)c1ccc(C(=O)NC2CCCCC2)cc1 [Compound 23e, Ethyl (2-(4-(Cyclohexylcarbamoyl)benzamido)thiophene-3-carbonyl)carbamate]
- SI (Vero cells): >128
- IC50 (Vero cells): > 64 µg/mL
- MIC (M. tuberculosis H37Rv [1]; [9]): 0.5 µg/mL (≈ 1.13 µM)
- MIC (M. tuberculosis H37Rv [1]; [8]): 0.5 µg/mL (≈ 1.13 µM)
- melting point: > 250 °C

Compound: CCOC(=O)NC(=O)c1ccsc1NC(=O)c1ccc(C(=O)N2CCC(OC)CC2)cc1 [Compound 23m, Ethyl (2-(4-(4-Methoxypiperidine-1-carbonyl)benzamido)thiophene-3-carbonyl)carbamate]
- SI (Vero cells): >533
- IC50 (Vero cells): > 64 µg/mL
- MIC (M. tuberculosis H37Rv [1]; [9]): 0.12 µg/mL (≈ 0.261 µM)
- MIC (M. tuberculosis H37Rv [1]; [8]): 0.12 µg/mL (≈ 0.261 µM)
- melting point: 160 to 161 °C

Compound: CCOC(=O)NC(=O)c1ccsc1NC(=O)c1coc(C(=O)N2CCCCC2)c1 [Compound 24k, Ethyl (2-(5-(Piperidine-1-carbonyl)furan-3-carboxamido)thiophene-3-carbonyl)carbamate]
- SI (Vero cells): >173
- IC50 (Vero cells): > 64 µg/mL
- MIC (M. tuberculosis H37Rv [1]; [9]): 0.37 µg/mL (≈ 0.882 µM)
- MIC (M. tuberculosis H37Rv [1]; [8]): 0.37 µg/mL (≈ 0.882 µM)
- MIC (M. tuberculosis H37Rv [1]; [10]): 0.15 µg/mL (≈ 0.358 µM)
- melting point: 157 to 158 °C

Compound: CCOC(=O)NC(=O)c1ccsc1NC(=O)c1ccc(C(=O)N(CC)CC)cc1 [Compound 23c, Ethyl (2-(4-(Diethylcarbamoyl)benzamido)thiophene-3-carbonyl)carbamate]
- SI (Vero cells): >229
- IC50 (Vero cells): > 64 µg/mL
- MIC (M. tuberculosis H37Rv [1]; [9]): 0.28 µg/mL (≈ 0.671 µM)
- MIC (M. tuberculosis H37Rv [1]; [8]): 0.28 µg/mL (≈ 0.671 µM)
- melting point: 178 to 179 °C

Compound: O=C(Nc1sccc1C(=O)Nc1nccc(C(F)(F)F)n1)c1ccc(C(=O)N2CCCCC2)cc1 [Compound 25l, 2-(4-(Piperidine-1-carbonyl)benzamido)-N-(4-(trifluoromethyl)pyrimidin-2-yl)thiophene-3-carboxamide]
- IC50 (Vero cells): > 64 µg/mL
- MIC (M. tuberculosis H37Rv [1]; [9]): 0.2 µg/mL (≈ 0.397 µM)
- MIC (M. tuberculosis H37Rv [1]; [8]): 0.2 µg/mL (≈ 0.397 µM)
- MIC (M. tuberculosis H37Rv [1]; [10]): 0.2 µg/mL (≈ 0.397 µM)
- MIC (M. tuberculosis H37Rv [1]; against M. tuberculosis H37Rv, Tables 1-3): 0.20 µg/mL (≈ 0.397 µM)
- log10 CFU/macrophages [2]: 4.54 ± 0.00 log10 CFU and 4.59 ± 0.03 log10 CFU
- Δlog10 CFU [2]: 0.98 log10 CFU and 0.93 log10 CFU
- melting point: 182 to 183 °C
- IC50 DprE1 (Mt-DprE1): 0.4 ± 0.1 µg/mL (≈ 0.794 µM)

Compound: CCOC(=O)NC(=O)c1ccsc1NC(=O)c1nc2ccccc2s1 [TCA1, reference compound]
- IC50 (Vero cells): 31.8 µg/mL (≈ 84.6 µM)
- MIC (M. tuberculosis H37Rv [1]; [9]): 0.48 µg/mL (≈ 1.28 µM)
- MIC (M. tuberculosis H37Rv [1]; [10]): 0.47 µg/mL (≈ 1.25 µM)
- pIC50 (hERG K+ channel): 4.74
- IC50 at 48 h [3]: 46.1 µg/mL (≈ 123 µM)
- half-life at 1 µM [4]: 85.3 min
- remaining at 0.5 h [4]: 74.8%
- half-life at 1 µM [5]: 5.97 min
- remaining at 0.5 h, 1 µM [5]: 3.1%
- Δlog10 CFU (M. tuberculosis H37Rv [6]; in vivo): 2.86 log10 CFU
- log10 CFU/lung (M. tuberculosis H37Rv [6]; second column (another batch, with TCA1; untreated 7.10), oral, three weeks, TCA1 100 mg/kg, INH 25 mg/kg): 4.24 ± 0.25 log10 CFU
- enhancement of oral bioavailability relative to 25a ([7]; Balb/c mice): 5 fold
- AUC(0-inf) at 24 h [7, 11]: 7910 ng·h/mL
- AUC(0-t) at 24 h [7, 11]: 7910 ng·h/mL
- Cmax at 24 h [7, 11]: 14300 ng/mL
- MRT inf at 24 h [7, 11]: 23.4 min
- clearance at 24 h [7, 11]: 10.6 mL/min/kg
- half-life at 24 h [7, 11]: 28.2 min
- AUC(0-inf) at 24 h [7, 12]: 33700 ng·h/mL
- AUC(0-t) at 24 h [7, 12]: 33700 ng·h/mL
- Cmax at 24 h [7, 12]: 10600 ng/mL
- MRT inf at 24 h [7, 12]: 172 min
- Tmax at 24 h [7, 12]: 60 min
- bioavailability at 24 h [7, 12]: 42.6%
- half-life at 24 h [7, 12]: 131 min
- IC50 DprE1 (Mt-DprE1): 0.1 ± 0.01 µg/mL (≈ 0.266 µM)

Compound: CCOC(=O)NC(=O)c1ccsc1NC(=O)c1ccc(C(=O)N2CCCCC2)cc1 [Compound 23j, Ethyl (2-(4-(Piperidine-1-carbonyl)benzamido)thiophene-3-carbonyl)carbamate]
- IC50 (Vero cells): > 64 µg/mL
- MIC (M. tuberculosis H37Rv [1]; [9]): 0.02 µg/mL (≈ 0.0466 µM)
- MIC (M. tuberculosis H37Rv [1]; [8]): 0.02 µg/mL (≈ 0.0466 µM)
- pIC50 (hERG K+ channel): 4.63
- IC50 at 48 h [3]: > 64 µg/mL
- half-life at 1 µM [4]: 56.4 min
- remaining at 0.5 h, 1 µM [4]: 69.1%
- log10 CFU/macrophages [2]: 4.45 ± 0.03 log10 CFU and 4.54 ± 0.01 log10 CFU
- Δlog10 CFU [2]: 1.07 log10 CFU and 0.98 log10 CFU
- half-life at 1 µM [5]: 50.8 min
- remaining at 0.5 h, 1 µM [5]: 66.4%
- IC50 DprE1 (Mt-DprE1): 0.3 ± 0.1 µg/mL (≈ 0.698 µM)
